Key:
[1] = tested on: epithelial stem cells derived from human tissues or other mammals; assay: Feeder-free epithelial stem cell culture; type: cell-based
From the text: Another illustrative system is a medium referred to as SGM-63+. The SGM-63+ medium has been tested and proven to support robust growth of epithelial stem cells derived from human tissues or other mammals in the absence of the irradiate feeder of mouse fibroblast cells (3T3-J2). For example, lung stem cells, esophagus stem cell, bladder stem cells and ovarian cancer stem cells, can all grow robustly in this culture system that comprises SGM-63+ medium without the need of irradiated 3T3-J2 feeders in the illustrated example.
The base medium comprises DMEM, F12, FBS, L-glutamine, Adenine, Pen/Strep, Insulin, T3, Hydrocortisone, EGF and is further added a Rock inhibitor, TGF-beta inhibitor, BMP4 inhibitor, VEGF inhibitor, TrkA inhibitor, Ponatinib, CK2 inhibitor, Syk inhibitor, LPA Receptor antagonist, Oct 4-activating compound 1, GSK3 inhibitor and FGF10. […] R-spondin was found not required to support the self-renewal and multipotency of stratified epithelial stem cells.

[2] = tested on: epithelial stem cells derived from human tissues or other mammals; assay: Epithelial stem cell culture on irradiated 3T3-J2 feeder; details: feeder-based medium
From the text: An illustrative system is a medium referred to as SQM. The SQM medium has been tested and proven to support robust growth of epithelial stem cells derived from human tissues or other mammals in the presence of the irradiate feeder of mouse fibroblast cells (3T3-J2). For example, lung stem cells, esophagus stem cell, bladder stem cells and ovarian cancer stem cells, can all grow robustly in this culture system that comprises SQM medium, along with irradiated 3T3-J2 feeders in the illustrated example.
The base medium comprises DMEM, F12, FBS, L-glutamine, Adenine, Pen/Strep, Insulin, T3, Hydrocortisone, EGF and is further added a Rock inhibitor, TGF-beta inhibitor, BMP4 inhibitor, VEGF inhibitor, TrkA inhibitor, Ponatinib and FGF10. […] R-spondin was found not required to support the self-renewal and multipotency of stratified epithelial stem cells.

ALK5 (TGF-β RI) = target: T1, ALK5 (TGF-β RI) (Homo sapiens, UniProt P36897); details: high concentrations, approximate; cited from earlier work
T1 sequence (P36897 34-503): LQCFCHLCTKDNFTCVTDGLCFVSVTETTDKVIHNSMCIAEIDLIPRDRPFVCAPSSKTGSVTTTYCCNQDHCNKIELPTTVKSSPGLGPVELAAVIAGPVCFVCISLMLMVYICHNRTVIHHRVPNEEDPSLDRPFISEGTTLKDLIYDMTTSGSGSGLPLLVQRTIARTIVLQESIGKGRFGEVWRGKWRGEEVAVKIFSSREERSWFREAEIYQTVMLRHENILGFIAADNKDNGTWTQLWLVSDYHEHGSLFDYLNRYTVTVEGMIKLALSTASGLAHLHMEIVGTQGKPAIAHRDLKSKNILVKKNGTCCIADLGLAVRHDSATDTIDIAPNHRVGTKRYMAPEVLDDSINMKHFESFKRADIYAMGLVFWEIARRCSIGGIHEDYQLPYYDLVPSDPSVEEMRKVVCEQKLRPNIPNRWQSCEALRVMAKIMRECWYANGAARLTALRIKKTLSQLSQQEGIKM

Compound: jagged1: Notch agonist, surface-bound or secreted Notch ligand
- effect of inclusion in the medium on epithelial stem cell self-renewal [1]: induce the abortion of some epithelial stem cell (lung, esophagus etc) self-renewal
- effect of inclusion in the medium on epithelial stem cell self-renewal [2]: induce the abortion of some epithelial stem cell (lung, esophagus etc) self-renewal

Compound: NC(=O)c1cccnc1 [nicotinamide]
- effect of inclusion in the medium on epithelial stem cell self-renewal [1]: induce the abortion of some epithelial stem cell (lung, esophagus etc) self-renewal
- effect of inclusion in the medium on epithelial stem cell self-renewal [2]: induce the abortion of some epithelial stem cell (lung, esophagus etc) self-renewal

Compound: 4-[5-(4-Fluorophenyl)-2-[4-(methylsulfonyl)phenyl]-1H-imidazol-4-yl]pyridine [SB-203580]
- concentration at which ALK5 may be inhibited (ALK5 (TGF-β RI)): ≥ 10 µM
